Measured values reported in patent publication US10392383B2, “3-(1H-benzo[d]imidazol-2-yl)-1H-pyrazolo[4,3-b]pyridines and therapeutic uses thereof” (Samumed, LLC, priority 2015, dated 2019).

Assays:
[1] = tested on: primary human fibroblasts derived from IPF patients (LL29 cells) treated with TGF-β1; experiment: Inhibition of the fibrotic process: αSMA staining in TGF-β1-treated LL29 fibroblasts; assay type: cell-based; conditions: Fibroblast; for EC50: 96 h, LL29 fibroblasts treated with TGF-β1 (20 ng/mL), 4 days, Table 4; for inhibition at 10 µM: LL29 fibroblasts treated with TGF-β1, Table 4, read-out: percent inhibition at 10 μM (given in parentheses for EC50 >10 μM)
Procedure, shortened: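 EC50 from triplicate-well dose-response fits of % αSMA-positive cells, normalized to TGF-β1-stimulated DMSO controls, with SYTOX-positive dead cells excluded. LL29 IPF fibroblasts received compound at 10 μM–1.87 nM (0.1% DMSO) plus 20 ng/mL TGF-β1 for 4 days in 1% FBS medium; above 10 μM, % inhibition at 10 μM reported.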

[2] = tested on: Wnt activity (Sp5-Luc reporter, Wnt-responsive promoter) in SW480 colon carcinoma cells; experiment: Wnt activity screening assay: Sp5-Luc reporter gene assay in SW480 cells; assay type: cell-based; conditions: Homo sapiens; for EC50: overnight incubation, 10-point curve starting from 10 μM; for inhibition at 10 µM: read-out: percent inhibition at 10 μM (given for EC50 of >10 μM)
Procedure, shortened: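 SW480 cells stably transduced with an Sp5 promoter (eight TCF/LEF sites)–firefly luciferase lentiviral reporter, plated at 4,000 cells/well in 1% FBS medium with compounds (10-point 1:3 series from 10 μM, 0.1% DMSO) overnight at 37 °C. BrightGlo luminescence normalised to DMSO; EC50 by four-parameter fit, else % inhibition at 10 μM.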

EC50 [2] [µM] | Structure (SMILES) | EC50 [1] [µM] | inhibition at 10 µM [2] [%] | inhibition at 10 µM [1] [%]
3.81 | Cc1ccc(-c2cccc3[nH]c(-c4n[nH]c5ccc(-c6cncc(OC7CCCCC7)c6)nc45)nc23)s1 [Compound 735, 5-(5-(Cyclohexyloxy)pyridin-3-yl)-3-(4-(5-methylthiophen-2-yl)-1H-benzo [d]imidazol-2-yl)-1H-pyrazolo[4,3-b]pyridine] | 1.13 | – | –
0.539 | Cn1cc(-c2ccc3[nH]nc(-c4nc5c(-c6cc(F)cc(CNS(C)(=O)=O)c6)cccc5[nH]4)c3n2)cn1 [Compound 764, N-(3-Fluoro-5-(2-(5-(1-methyl-1H-pyrazol-4-yl)-1H-pyrazolo[4,3-b]pyridin-3-yl)-1H-benzo[d]imidazol-4-yl)benzyl)methanesulfonamide] | 1.99 | – | –
> 10 | CS(=O)(=O)NCc1cc(F)cc(-c2cccc3[nH]c(-c4n[nH]c5ccc(-c6cncc(NC(=O)CC7CCNCC7)c6)nc45)nc23)c1 [Compound 769, N-(5-(3-(4-(3-Fluoro-5-(methylsulfonamidomethyl)phenyl)-1H-benzo[d]imidazol-2-yl)-1H-pyrazolo[4,3-b]pyridin-5-yl)pyridin-3-yl)-2-(piperidin-4-yl)acetamide] | 3.25 | 12.3 | –
0.48 | Cc1ncc(-c2ccc3[nH]nc(-c4nc5c(-c6cc(F)cc(NCCN(C)C)c6)cccc5[nH]4)c3n2)n1C [Compound 781, N^1-(3-(2-(5-(1,2-Dimethyl-1H-imidazol-5-yl)-1H-pyrazolo[4,3-b]pyridin-3-yl)-1H-benzo[d]imidazol-4-yl)-5-fluorophenyl)-N^2,N^2-dimethylethane-1,2-diamine] | 0.917 | – | –
3.11 | CN(C)CCNc1cc(F)cc(-c2cccc3[nH]c(-c4n[nH]c5ccc(-c6cncc(OCCN7CCCC7)c6)nc45)nc23)c1 [Compound 786, N^1-(3-Fluoro-5-(2-(5-(5-(2-(pyrrolidin-1-yl)ethoxy)pyridin-3-yl)-1H-pyrazolo[4,3-b]pyridin-3-yl)-1H-benzo[d]imidazol-4-yl)phenyl)-N^2,N^2-dimethylethane-1,2-diamine] | 1.77 | – | –
1.12 | CN(C)CCNc1cc(F)cc(-c2cccc3[nH]c(-c4n[nH]c5ccc(-c6cncc(OCc7ccccc7)c6)nc45)nc23)c1 [Compound 790, N^1-(3-(2-(5-(5-(Benzyloxy)pyridin-3-yl)-1H-pyrazolo[4,3-b]pyridin-3-yl)-1H-benzo[d]imidazol-4-yl)-5-fluorophenyl)-N^2,N^2-dimethylethane-1,2-diamine] | 0.798 | – | –
3.96 | CN(C)CCNc1cc(F)cc(-c2cccc3[nH]c(-c4n[nH]c5ccc(-c6cnccn6)nc45)nc23)c1 [Compound 792, N^1-(3-Fluoro-5-(2-(5-(pyrazin-2-yl)-1H-pyrazolo[4,3-b]pyridin-3-yl)-1H-benzo[d]imidazol-4-yl)phenyl)-N^2,N^2-dimethylethane-1,2-diamine] | 1.9 | – | –
3.99 | CN(C)CC(=O)Nc1cncc(-c2ccc3[nH]nc(-c4nc5c(-c6cccc(F)c6)cccc5[nH]4)c3n2)c1 [Compound 969, 2-(Dimethylamino)-N-(5-(3-(4-(3-fluorophenyl)-1H-benzo[d]imidazol-2-yl)-1H-pyrazolo[4,3-b]pyridin-5-yl)pyridin-3-yl)acetamide] | 2.07 | – | –
4.61 | COc1cccc(-c2cccc3[nH]c(-c4n[nH]c5ccc(-c6cccnc6)nc45)nc23)c1 [Compound 994, 3-(4-(3-Methoxyphenyl)-1H-benzo[d]imidazol-2-yl)-5-(pyridin-3-yl)-1H-pyrazolo[4,3-b]pyridine] | 1.05 | – | –
3.25 | COc1cccc(-c2cccc3[nH]c(-c4n[nH]c5ccc(-c6cncc(NC(=O)Cc7ccccc7)c6)nc45)nc23)c1 [Compound 1000, N-(5-(3-(4-(3-Methoxyphenyl)-1H-benzo[d]imidazol-2-yl)-1H-pyrazolo[4,3-b]pyridin-5-yl)pyridin-3-yl)-2-phenylacetamide] | 2.27 | – | –
2.41 | COc1cccc(-c2cccc3[nH]c(-c4n[nH]c5ccc(-c6cncc(NC(=O)CC(C)(C)C)c6)nc45)nc23)c1 [Compound 1006, N-(5-(3-(4-(3-methoxyphenyl)-1H-benzo[d]imidazol-2-yl)-1H-pyrazolo[4,3-b]pyridin-5-yl)pyridin-3-yl)-3,3-dimethylbutanamide] | > 10 | – | 32.2
> 10 | COc1cccc(-c2cccc3[nH]c(-c4n[nH]c5ccc(-c6cncc(NC(=O)C7CCCCC7)c6)nc45)nc23)c1 [Compound 1012, N-(5-(3-(4-(3-Methoxyphenyl)-1H-benzo[d]imidazol-2-yl)-1H-pyrazolo[4,3-b]pyridin-5-yl)pyridin-3-yl)cyclohexanecarboxamide] | > 10 | 3.6 | 36.9
> 10 | COc1cccc(-c2cccc3[nH]c(-c4n[nH]c5ccc(-c6cn[nH]c6)nc45)nc23)c1 [Compound 1020, 3-(4-(3-Methoxyphenyl)-1H-benzo[d]imidazol-2-yl)-5-(1H-pyrazol-4-yl)-1H-pyrazolo[4,3-b]pyridine] | 0.371 | 18.9 | –
3.97 | COc1cccc(-c2cccc3[nH]c(-c4n[nH]c5ccc(-c6cncc(OC7CCNCC7)c6)nc45)nc23)c1 [Compound 1025, 3-(4-(3-Methoxyphenyl)-1H-benzo[d]imidazol-2-yl)-5-(5-(piperidin-4-yloxy)pyridin-3-yl)-1H-pyrazolo[4,3-b]pyridine] | 2.11 | – | –
0.98 | COc1cccc(-c2cccc3[nH]c(-c4n[nH]c5ccc(-c6cncc(O)c6)nc45)nc23)c1 [Compound 1030, 5-(3-(4-(3-Methoxyphenyl)-1H-benzo[d]imidazol-2-yl)-1H-pyrazolo[4,3-b]pyridin-5-yl)pyridin-3-ol] | 0.915 | – | –
1.9 | CC(C)CC(=O)Nc1cncc(-c2ccc3[nH]nc(-c4nc5c(-c6ccc(Cl)s6)cccc5[nH]4)c3n2)c1 [Compound 1037, N-(5-(3-(4-(5-Chlorothiophen-2-yl)-1H-benzo[d]imidazol-2-yl)-1H-pyrazolo [4,3-b]pyridin-5-yl)pyridin-3-yl)-3-methylbutanamide] | 1.39 | – | –
1.31 | CC(C)(C)C(=O)Nc1cncc(-c2ccc3[nH]nc(-c4nc5c(-c6ccc(Cl)s6)cccc5[nH]4)c3n2)c1 [Compound 1043, N-(5-(3-(4-(5-chlorothiophen-2-yl)-1H-benzo[d]imidazol-2-yl)-1H-pyrazolo[4,3-b]pyridin-5-yl)pyridin-3-yl)pivalamide] | 2.33 | – | –
1.25 | Clc1ccc(-c2cccc3[nH]c(-c4n[nH]c5ccc(-c6cncc(CN7CCCC7)c6)nc45)nc23)s1 [Compound 1049, 3-(4-(5-Chlorothiophen-2-yl)-1H-benzo[d]imidazol-2-yl)-5-(5-(pyrrolidin-1-ylmethyl)pyridin-3-yl)-1H-pyrazolo[4,3-b]pyridine] | 0.733 | – | –
3.3 | O=C(Nc1cncc(-c2ccc3[nH]nc(-c4nc5c(-c6ccc(Cl)s6)cccc5[nH]4)c3n2)c1)C1CCC1 [Compound 1056, N-(5-(3-(4-(5-Chlorothiophen-2-yl)-1H-benzo[d]imidazol-2-yl)-1H-pyrazolo [4,3-b]pyridin-5-yl)pyridin-3-yl)cyclobutanecarboxamide] | 2.36 | – | –
1.24 | NC1CN(c2cncc(-c3ccc4[nH]nc(-c5nc6c(-c7ccc(Cl)s7)cccc6[nH]5)c4n3)n2)C1 [Compound 1068, 1-(6-(3-(4-(5-Chlorothiophen-2-yl)-1H-benzo[d]imidazol-2-yl)-1H-pyrazolo [4,3-b]pyridin-5-yl)pyrazin-2-yl)azetidin-3-amine] | 1.71 | – | –
3.52 | c1cc(-c2ccc3c(c2)OCO3)c2nc(-c3n[nH]c4ccc(C5CCNCC5)nc34)[nH]c2c1 [Compound 1108, 3-(4-(Benzo[d][1,3]dioxol-5-yl)-1H-benzo[d]imidazol-2-yl)-5-(piperidin-4-yl)-1H-pyrazolo[4,3-b]pyridine] | > 10 | – | 14.1
0.892 | O=C(Nc1cncc(-c2ccc3[nH]nc(-c4nc5c(-c6ccccc6F)cccc5[nH]4)c3n2)c1)C(F)(F)F [Compound 1126, 2,2,2-Trifluoro-N-(5-(3-(4-(2-fluorophenyl)-1H-benzo[d]imidazol-2-yl)-1H-pyrazolo[4,3-b]pyridin-5-yl)pyridin-3-yl)acetamide] | 2.29 | – | –

Structure (SMILES) | EC50 [2] [µM] | EC50 [1] [µM] | inhibition at 10 µM [2] [%] | inhibition at 10 µM [1] [%]
Cc1ccc(-c2cccc3[nH]c(-c4n[nH]c5ccc(C6=CCNCC6)nc45)nc23)s1 [Compound 730, 3-(4-(5-Methylthiophen-2-yl)-1H-benzo[d]imidazol-2-yl)-5-(1,2,3,6-tetrahydropyridin-4-yl)-1H-pyrazolo[4,3-b]pyridine] | 1.01 | 1.34 | – | –
C1=C(c2ccc3[nH]nc(-c4nc5c(-c6ccc7c(c6)OCO7)cccc5[nH]4)c3n2)CCNC1 [Compound 1109, 3-(4-(Benzo[d][1,3]dioxol-5-yl)-1H-benzo[d]imidazol-2-yl)-5-(1,2,3,6-tetrahydropyridin-4-yl)-1H-pyrazolo[4,3-b]pyridine] | 1.08 | 1.59 | – | –
